Measured values taken from patent US6919441B2, “Polyamide-oligonucleotide derivatives, their preparation and use” (Aventis Pharma Deutschland GmbH, priority 1995, dated 2005).
Values belong to the substance of their own block, whether it stands above or below them. In the oligonucleotide strings, read from the 5' end, every base follows the letter of its sugar. An asterisk marks phosphorothioate; unmarked linkages are phosphodiester. Other units and linkages are bracketed, terminal groups are in braces. A string of capitals states the bases alone. d = 2'-deoxy (DNA)

Assays:
[1] = test system: complementary RNA (T = U); test: Melting temperature (TM) with complementary RNA; format: binding; settings: ap; 3′-TGT AGT ACC AGC-5′ (T = U); 10 mM HEPES, 140 mM NaCl, pH 7.5
Description: (§1) The melting temperatures are determined using an HP 8452A diode array spectrophotometer, an HP 89090A Peltier element and the HP temperature control software Rev.B5.1 (from Hewlett Packard). Measurements are carried out in 0.5° C./min steps in 10 mM HEPES and 140 mM NaCl (pH 7.5) as buffer. The oligomer concentration is 0.5 to 1 OD260 per ml.

[2] = test system: complementary DNA; test: Melting temperature (TM) with complementary DNA; format: binding; settings: 10 mM HEPES, 140 mM NaCl, pH 7.5
Description: as §1

[3] = test system: Ha-ras protein expression; test: Anti-Ha-ras activity, Western blot in RS485 cells; format: cell-based
Description: RS485 cells (40-60% confluency) were either treated with the PNS_DNA chimera alone or transfected with PNA-DNA chimera using Lipofectin™ Reagent and the protocol from Life Technologies. Briefly, varying concentrations of oligomers were diluted in 100 μl of serum-free medium. In a separate tube Lipofectin was added to serum-free medium at a concentration of 7 μl/100 μl. After 30 minutes at room temperature, 100 μl of Lipofectin solution was mixed with 100 μl of ODN solution, incubated for an additional 15 minutes at room temperature, and mixed with 800 μl of serum-free medium. Cells were washed two times with serum-free medium, and the total solution (1 ml) containing the ODN-Lipofectin complex was overlayed onto the cells. After 6 hours, 1 ml of fresh medium containing 8 mM L-glutamine and 20% calf serum was added, and the cells were incubated for an additional 38 hours. Treated cells were washed with PBS, harvested with trypsin, and cellular proteins were extracted. The ras Protein was then determined by Western Blot Analysis. Total cellular protein was prepared by lysing cells in RIPA buffer with freshly added inhibitors (PMSF, aprotinin, sodium orthovanadate) and homogenizing through 21-gauge needles according to the protocol provided by Santa Cruz Biotechnology, Inc. The extracts were cleaned by centrifugation at 15,000 xg for 20 min at 4° C. and the protein concentration of the supernatant was determined. 40 μg of protein was size fractionated in 5-12.5% PAGE and electroblotted onto a nitrocellulose membrane. The membrane was incubated with primary antibody against Ha-Ras (C-20) (Santa Cruz Biotechnology, Inc.) and then with Horseradish Peroxidase-conjugated goat anti-rabbit immunoglobulin G. The ECL chemo-luminescent Western system (Amersham, Arlington Heights, Ill.) was used to detect secondary probes.

[4] = test system: VEGF (vascular endothelial growth factor); test: Inhibition of VEGF expression (ELISA of culture supernatants); format: cell-based, human
Description: Cell Culture: Normal human epidermal keratinocytes (NHEK cells) were grown in KGM growth medium (Clonetics).
Both human estrogen responsive breast tumor (MCF-7) cells and human estrogen-independent breast tumor (MDA-MB-231) cells were grown in IMEM (Biofluids) supplemented with 10% FBS (Gibco-BRL) and 1:100 antibiotic-antimycotic (Gibco-BRL).
Cellular assays: NHEK cells were seeded at a density of ˜50,000 cells per well in 48-well plates in 0.5 ml of KGM growth medium (Clonetics) and incubated in humidified incubators at 37° C. The following day, the growth medium was replaced with fresh medium containing the PNA-DNA chimera alone or as mixture with Cellfectin, a cationic lipid uptake enhancer for nucleic acids (Life Technologies). Incubation of cells with the oligomer formulation was followed by a wash after 4 hours and cells were returned to fresh unsupplemented medium. Sixteen and/or 40 hr post-stimulation the culture supernatants were removed and used for ELISA, or saved at −80° C. for future analysis. To assay MCF-7 or MDA-MB-231 cells. MCF-7/MDA-MB-231 cells were seeded at a density of ˜100,000 cells per well plates in 0.5 ml of IMEM and incubated under standard conditions. […] VEGF protein levels in the supernatant were determined using a commercially available ELISA kit (R&D Systems).

[5] = test system: DNA double strand (homopurine motif); test: Binding as triplex-forming oligonucleotide to double-stranded DNA
[6] = Stability of the oligomer in medium containing cells; format: in vitro ADME
Description: Vero cells are incubated in DMEM, 5% FCS, in 96-well microtiter plates at 37° C. for 24 hours. After removal of the medium, the cells are washed twice with serum-free DMEM. The radioactively labeled oligomer (10^6 cpm) is diluted with unlabeled oligomer to a concentration of 10 μM in serum, and the cells are incubated at 37° C. therewith. 150 μl portions are removed after 1, 7 and 24 hours (called “supernatant 1”). The cells in the wells of the microtiter plates are washed 7 times with 300 μl of fresh medium, and the combined washing media (called “supernatant 2”) are measured in a scintillation counter. Then 100 μl of trypsin solution are added, 30 seconds are allowed to elapse, and the supernatant is aspirated off. The cells are detached from the plate by incubating at 37° C. for 3 min. The detached cells are transferred into 1.5 ml Eppendorf tubes and centrifuged at 2,000 rpm for 6 minutes (“supernatant 3”). Supernatants 1 (5 μl), 2 and […] (0.5 ml) are each measured separately in a scintillation counter. From this is calculated the uptake of oligomer in pmol per 100,000 cells, with supernatant 3 representing the cell-bound oligomer fraction and the total of supernatants 1 and 2 representing the non-cell-bound oligomer fraction.
Supernatant 1 (10 μl) is mixed with 5 μl of 80% formamide (with Xylenecyanol and bromphenolblue), heated to 95° C. […]

[7] = target: DNA polymerase (Klenow fragment) (Escherichia coli, UniProt P00582); test: DNA polymerase reaction (primer function); format: biochemical; settings: 22° C. and 37° C., 10% polyacrylamide gel
DNA polymerase (Klenow fragment), sequence (P00582 324-928): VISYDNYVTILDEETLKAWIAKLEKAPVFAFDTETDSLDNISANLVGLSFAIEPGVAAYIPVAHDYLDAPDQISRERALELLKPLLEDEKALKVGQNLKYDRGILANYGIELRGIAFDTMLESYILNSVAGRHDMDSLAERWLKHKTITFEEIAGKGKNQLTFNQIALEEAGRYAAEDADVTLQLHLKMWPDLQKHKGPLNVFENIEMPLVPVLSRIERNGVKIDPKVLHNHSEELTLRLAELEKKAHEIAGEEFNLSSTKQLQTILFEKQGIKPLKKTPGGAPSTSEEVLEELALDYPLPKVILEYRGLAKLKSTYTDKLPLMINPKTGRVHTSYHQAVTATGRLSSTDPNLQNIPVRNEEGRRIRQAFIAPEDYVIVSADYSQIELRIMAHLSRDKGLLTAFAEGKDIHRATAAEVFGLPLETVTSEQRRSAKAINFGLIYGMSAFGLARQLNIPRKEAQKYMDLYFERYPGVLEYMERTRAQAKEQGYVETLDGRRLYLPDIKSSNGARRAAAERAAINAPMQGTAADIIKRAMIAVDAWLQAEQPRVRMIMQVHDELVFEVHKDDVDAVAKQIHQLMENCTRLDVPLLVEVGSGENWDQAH
Description: The following 81-mer oligodeoxynucleotide is used as template for the DNA polymerase reaction: • 5′-GCCCCAGGGAGAAGGCAACTGGACCGAAGGCGCTTGTGGAGAAGGAGTTCATAGCTGGGCTCCCTATAGTGAGTCGTATTA-3′(SEQ ID NO:50)
The sequence of the PNA/DNA primer is: • H-taa tac gac tca cta (5NH-T)-OH 3′(SEQ ID NO:62).
A corresponding oligodeoxynucleotide of the sequence 5′-TAA TAC GAC TCA CTA TAG-3′ (SEQ ID NO:51) is used as control primer.
The primer (0.15 nmol) and the template (0.15 nmol) in 5 μl of 10×PCR buffer ([…], 100 mM tris-HCl, pH 9, 1% Triton X-100, 15 MM MgCl2) are diluted with 35 μl of water and hybridized by heating to 95° C. and cooling. Then 10 μl of 2 mM dNTP mixture (nucleoside 5′-triphosphates) and 3 μl of DNA polymerase (Klenow fragment) are added, and the mixture is incubated at 22° C. and 37° C. for 0.5 hour each. The reaction solution is then analyzed on a 10% polyacrylamide gel (with 1% bis). pBR322/HaeIII digestion is loaded as marker. […] In both cases the double strand migrates […] than the template single strand in the gel electrophoresis.

[8] = test system: c-Fos protein expression; test: Inhibition of c-Fos protein expression in the rat (spinal cord superfusion); format: in vivo, Sprague-Dawley rat; settings: 75 μM, 6 hours, heat stimulation
Description: The determination takes place as described (Sandkühler et al. (1991) in: Proceedings of the VIth World Congress on Pain, Charlton and Woolf, Editors; Elsevier, Amsterdam; pages 313-318) by superfusion of the spinal cord. After laminectomy of a barbiturate-anesthetized Sprague-Dawley rat, a two-chamber container is formed from silicone to receive the antisense oligomer. One chamber is filled with the antisense PNA/DNA derivative, while the other chamber is filled with the control oligomer (concentration of each 75 μM). The superfusate is exchanged in each case after one hour. After superfusion for 6 hours, c-fos expression is stimulated by heat treatment (52° C.) of the rear legs.

[9] = test system: COS cells; test: Cellular uptake by fluorescence labeling (fluorescence microscopy); format: cell-based; settings: 0.1 mM oligomer
Description: COS cells are allowed to grow to confluence in Dulbecco's MEM supplemented with 10% FCS in 5 cm Petri dishes. The cells are washed twice with serum-free DMEM. A sterile needle is used to scratch an area of about 1 cm^2 in the middle of the Petri dish. The PNA/DNA oligomer solution (0.1 mM) to be investigated is applied to this area. Incubation is carried out at 37° C. under a CO2 atmosphere. The cells are investigated by fluorescence microscopy after 2, 4 and 16 hours. For this, the cells are washed four times with serum-free DMEM, covered with a glass slide and assessed under a fluorescence microscope or by phase contrast. A fluorescence-labeled PNA (without DNA part) F-(but)-tttt ttt-hex was investigated as comparison for the PNA/DNA hybrid molecules. After the cells had been incubated with this PNA for two hours, >90% of the cells show signs of pronounced morphological changes and cell death. […] The plasma membrane, the cytosol and the nucleus show no uptake of PNA. […] The situation is different with the DNA/PNA oligomers according to the invention. After incubation of the cells with the DNA/PNA oligomers for only two hours the cells show punctiform intracellular distribution of the PNA/DNA oligomers. The cells suffer no cell death even after prolonged incubation.

[10] = target: RNase L (cellular endoribonuclease L) (Homo sapiens, UniProt Q05823); settings: HeLa cell extract, 37° C.
RNase L (cellular endoribonuclease L), sequence (Q05823 whole entry): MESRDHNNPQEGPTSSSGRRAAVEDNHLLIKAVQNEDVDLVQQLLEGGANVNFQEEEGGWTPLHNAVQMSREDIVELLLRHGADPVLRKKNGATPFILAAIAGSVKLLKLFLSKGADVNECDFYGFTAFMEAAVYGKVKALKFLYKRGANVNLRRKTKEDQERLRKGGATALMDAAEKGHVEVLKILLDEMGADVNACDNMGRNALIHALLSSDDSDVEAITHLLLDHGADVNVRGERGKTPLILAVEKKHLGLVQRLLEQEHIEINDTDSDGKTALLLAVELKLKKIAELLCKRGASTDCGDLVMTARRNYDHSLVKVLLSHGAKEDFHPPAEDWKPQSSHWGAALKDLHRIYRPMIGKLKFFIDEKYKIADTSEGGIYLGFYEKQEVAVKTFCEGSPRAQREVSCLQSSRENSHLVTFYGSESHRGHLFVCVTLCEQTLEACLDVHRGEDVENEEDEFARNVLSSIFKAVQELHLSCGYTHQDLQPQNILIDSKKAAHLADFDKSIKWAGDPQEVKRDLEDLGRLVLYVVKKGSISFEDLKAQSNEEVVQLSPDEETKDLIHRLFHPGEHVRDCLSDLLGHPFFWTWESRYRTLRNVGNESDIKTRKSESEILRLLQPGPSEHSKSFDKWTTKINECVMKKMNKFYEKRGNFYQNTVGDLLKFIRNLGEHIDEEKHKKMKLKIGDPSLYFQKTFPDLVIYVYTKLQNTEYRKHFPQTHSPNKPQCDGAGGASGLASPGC
Description: An HeLa cell extract was prepared in order to stimulate the activity of cellular endoribonuclease L by the 2′,5′-tetraadenylate-PNA/DNA conjugates.
For investigation of this extract for endonuclease L, initially 0.3 OD of the RNA target sequence is heated with the particular PNA/DNA oligomers at 80° C. for 5 minutes and subsequently cooled to 37° C. for the hybridization. The duplex is mixed with 20 μl of the extract, 1.2 μl of glycerol and RNase L buffer and incubated at 37° C. The total volume is then 70 μl. For the kinetic investigations, samples are removed by pipette at the times of 0, 20 and 60 minutes and heated at 95° C. for 5 minutes to denature the enzymes. The samples are lyophilized in a Speedvac and analyzed by gel electrophoresis.

[11] = antiparallel, 3′-TAG CAG CAT AAT CAG-5′
[12] = parallel, 5′-TAG CAG CAT AAT CAG-3′

Substance: 5′-ACA TCA TGG TCG-3′ [5′-ACA TCA TGG TCG-3′ DNA] (ACATCATGGTCG; unmodified DNA) [natural DNA oligonucleotide, reference compound]
TM with RNA (T = U) [1]: 48.6° ° C. | TM with DNA ([2]; ap, 3′-TGT AGT ACC AGC-5′): 50.7° ° C.

Substance: 5′-ACA TCA TGG TCG-3′ [5′-ACA TCA TGG TCG-3′ S-DNA] (dA*dC*dA*dT*dC*dA*dT*dG*dG*dT*dC*dG) [reference compound]
TM with RNA (T = U) [1]: 43.8° ° C. | TM with DNA ([2]; ap, 3′-TGT AGT ACC AGC-5′): 46.7° ° C.

Substance: 5′-ASTSGS-(Oeg(a))-cgg aata-hex [Example 53]
inhibition of ha-ras expression (control oligonucleotides) [3]: did not inhibit

Substance: 5′-ATC GTC GTA TT-(Oeg(t))-agtc-hex [Example 18]
TM with DNA [2, 11]: TM = 51.5 °C | TM with DNA [2, 12]: TM < 20 °C

Substance: 5′-ATC GTC GTA TT-(but)-agtc-hex [Example 17]
TM with DNA [2, 11]: TM = 51.0 °C | TM with DNA [2, 12]: TM < 20 °C

Substance: 5′-ATC GTC GTA TTA GTC-3′ (ATCGTCGTATTAGTC; DNA, backbone not given here) [natural DNA oligonucleotide (DNA · DNA duplex), reference compound]
TM with DNA [2, 11]: TM = 50.5 °C

Substance: 5′-ATG-(Oeg(a))-cgg aata-hex [Example 52]
inhibition of ha-ras expression (control oligonucleotides) [3]: did not inhibit

Substance: 5′-CSUSGAUSAG-(Oeg(a))-catccatg-hex [Example 54]
highest inhibition of VEGF expression ([4]; 1 μM, presence of Cellfectin (10 μg/ml)): 43% | inhibition of VEGF expression ([4]; 0.1 to 0.4 μM, absence of Cellfectin): 10-18%

binding as triplex-forming oligonucleotide to DNA double strand [5]: high affinity
Substance: 5′-GG GGG GGG (Oeg(t)) ttt ttt ttt-hex [Example 39]

binding as triplex-forming oligonucleotide to DNA double strand [5]: high affinity
Substance: 5′-GGG GGG GGG (but) ttt ttt-hex [Example 28]

Substance: 5′-TSASTS-(Oeg(t))-ccgtcat-hex [Example 51]
inhibition of ha-ras protein expression ([3]; 1 μM, in the presence of lipofectin): almost complete inhibition

stable oligomer ([6]; after an incubation time of 24 hours in medium containing cells): 69%
Substance: 5′-TTT TTT TTT (but) ttt ttt-hex [Example 26]

Substance: (5′)-(Acetyl)-taa tac gac tca cta (eae(t) A-3′ [Example 65]
DNA polymerase reaction product with primer on 81-mer template (gel) [7]: dNTP are polymerized

half-life ([6]; medium containing cells): 32 h
Substance: A CAT CA (Oeg(t)) ggt cg-hex [Example 31]
inhibition of c-fos expression compared with corresponding DNA oligonucleotide and PNA oligomer [8]: greater inhibition

Substance: F-(but)-tttt ttt-hex
cell death on further/prolonged incubation ([9]; a further two hours or prolonged incubation): all the cells have died | cells showing pronounced morphological changes and cell death ([9]; incubated two hours): > 90% | intracellular uptake (fluorescence microscopy) ([9]; two hours): no uptake

Substance: PS-rA(2′5′)rA(2′5′)rA(2′5′)rA-spacer-(Oeg(t)tc ctc ctg cgg-hex [Example 37]
stimulation of RNase L [10]: stimulates RNase L

Substance: taa tac gac tca cta (5′HN-T) (TAATACGACTCACTA; listed as DNA, chemistry not fully specified) [Example 36, 15 PNA units and one nucleoside unit, primer for DNA polymerase]
DNA polymerase reaction product with primer on 81-mer template (gel) [7]: migrates somewhat more quickly
